{"source": "patent US20100284985A1", "about": "“Composition” (Danisco A/S, priority 2007, published 2010)", "origin": "cited, not measured here", "tested_on": "common food spoilage yeasts and moulds", "settings": "most strains of common food spoilage yeasts and moulds; cited from earlier work", "data": [{"molecule": "C[C@@H]1C/C=C/C=C/C=C/C=C/[C@H](O[C@@H]2O[C@H](C)[C@@H](O)[C@H](N)[C@@H]2O)C[C@@H]2O[C@](O)(C[C@@H](O)C[C@H]3O[C@@H]3/C=C/C(=O)O1)C[C@H](O)[C@H]2C(=O)O", "note": "[natamycin]", "values": [{"measurement": "concentrations inhibiting most strains", "result": "1-15 ppm"}]}]}
